Laboratory results taken from ChEMBL document CHEMBL4138244, “Structure-based identification of a NEDD8-activating enzyme inhibitor via drug repurposing” (Eur J Med Chem, 2018).
pEC50, pIC50: −log10 of the molar value. Calls of active or inactive are those of the source. No cut-off for these calls is given here.

What was measured:
Caco-2 [1] = test: Cytotoxicity against human Caco2 cells after 72 hrs by MTT assay; format: functional, cell-based; details: Caco-2, 72 h
Caco-2 [2] = test: Induction of apoptosis in human Caco2 cells assessed as late apoptotic cells at 10 uM after 16 hrs by Annexin V-FITC/propidium iodide staining-based flow cytometric analysis (reference value: 0.072%); format: functional
Caco-2 [3] = test: Induction of apoptosis in human Caco2 cells assessed as early apoptotic cells at 10 uM after 16 hrs by Annexin V-FITC/propidium iodide staining-based flow cytometric analysis (reference value: 1.40%); format: functional
NEDD8 activating enzyme = biological target: T1, NEDD8 activating enzyme (Homo sapiens, UniProt Q8TBC4); test: (§1) Inhibition of NAE-mediated Ubcl2-NEDD8 conjugation in human Caco2 cells after 16 hrs by Western blot analysis; format: cell-based
T1 sequence (Q8TBC4 whole entry): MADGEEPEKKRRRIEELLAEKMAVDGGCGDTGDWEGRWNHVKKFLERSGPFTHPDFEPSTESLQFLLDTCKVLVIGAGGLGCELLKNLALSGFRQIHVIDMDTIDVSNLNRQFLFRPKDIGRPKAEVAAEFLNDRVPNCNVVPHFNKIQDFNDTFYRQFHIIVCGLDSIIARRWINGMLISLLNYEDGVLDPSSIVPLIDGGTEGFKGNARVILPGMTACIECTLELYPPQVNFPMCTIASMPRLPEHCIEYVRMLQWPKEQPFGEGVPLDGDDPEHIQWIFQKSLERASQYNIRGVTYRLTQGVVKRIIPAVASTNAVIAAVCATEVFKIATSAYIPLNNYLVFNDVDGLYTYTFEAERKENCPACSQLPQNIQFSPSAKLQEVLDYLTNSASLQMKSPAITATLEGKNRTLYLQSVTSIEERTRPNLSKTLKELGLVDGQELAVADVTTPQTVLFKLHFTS
T1 sequence (Q13564 whole entry): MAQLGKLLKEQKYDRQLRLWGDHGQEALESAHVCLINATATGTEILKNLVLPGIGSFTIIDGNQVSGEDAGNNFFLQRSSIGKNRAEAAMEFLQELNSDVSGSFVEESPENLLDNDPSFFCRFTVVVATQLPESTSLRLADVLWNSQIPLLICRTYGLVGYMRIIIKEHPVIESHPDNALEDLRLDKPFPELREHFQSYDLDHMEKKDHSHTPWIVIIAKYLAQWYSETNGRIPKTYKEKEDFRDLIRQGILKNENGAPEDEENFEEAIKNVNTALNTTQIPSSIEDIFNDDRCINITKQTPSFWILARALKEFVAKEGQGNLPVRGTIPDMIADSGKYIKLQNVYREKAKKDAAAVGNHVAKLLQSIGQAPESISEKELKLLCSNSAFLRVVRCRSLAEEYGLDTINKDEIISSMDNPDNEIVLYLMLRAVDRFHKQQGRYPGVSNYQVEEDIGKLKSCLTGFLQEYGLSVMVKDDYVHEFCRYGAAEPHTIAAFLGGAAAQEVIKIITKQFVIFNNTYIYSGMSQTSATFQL

[4] = biological target: T2, NEDD8 activating enzyme (Homo sapiens) (UniProt Q8TBC4+Q13564); test: as §1; format: cell-based
[5] = biological target: T2, NEDD8 activating enzyme (Homo sapiens); test: Inhibition of NAE (unknown origin) assessed as decrease in NAE-mediated Ubc12-NEDD8 conjugation levels preincubated for 10 mins followed by ATP and Mg2+ addition measured after 60 mins by Western blot analysis; format: protein-complex assay
[6] = biological target: T2, NEDD8 activating enzyme (Homo sapiens); test: Inhibition of NAE in human Caco2 cells assessed as increase in p53 protein levels at 1 to 10 uM after 16 hrs by Western blot analysis; format: cell-based
Caco-2 [7] = test: Induction of apoptosis in human Caco2 cells assessed as necrotic cells at 1 uM after 16 hrs by Annexin V-FITC/propidium iodide staining-based flow cytometric analysis (reference value: 0.12%); format: functional
Caco-2 [8] = test: Induction of apoptosis in human Caco2 cells assessed as necrotic cells at 10 uM after 16 hrs by Annexin V-FITC/propidium iodide staining-based flow cytometric analysis (reference value: 0.12%); format: functional
[9] = biological target: T3, Ubiquitin-like modifier-activating enzyme 1 (Homo sapiens) (UniProt P22314); test: Inhibition of UAE1-mediated Ubc10-ubiquitin conjugation in human Caco2 cells up to 10 uM preincubated for 10 mins followed by ATP and Mg2+ addition measured after 60 mins by Western blot analysis; format: cell-based
T3 sequence (whole entry): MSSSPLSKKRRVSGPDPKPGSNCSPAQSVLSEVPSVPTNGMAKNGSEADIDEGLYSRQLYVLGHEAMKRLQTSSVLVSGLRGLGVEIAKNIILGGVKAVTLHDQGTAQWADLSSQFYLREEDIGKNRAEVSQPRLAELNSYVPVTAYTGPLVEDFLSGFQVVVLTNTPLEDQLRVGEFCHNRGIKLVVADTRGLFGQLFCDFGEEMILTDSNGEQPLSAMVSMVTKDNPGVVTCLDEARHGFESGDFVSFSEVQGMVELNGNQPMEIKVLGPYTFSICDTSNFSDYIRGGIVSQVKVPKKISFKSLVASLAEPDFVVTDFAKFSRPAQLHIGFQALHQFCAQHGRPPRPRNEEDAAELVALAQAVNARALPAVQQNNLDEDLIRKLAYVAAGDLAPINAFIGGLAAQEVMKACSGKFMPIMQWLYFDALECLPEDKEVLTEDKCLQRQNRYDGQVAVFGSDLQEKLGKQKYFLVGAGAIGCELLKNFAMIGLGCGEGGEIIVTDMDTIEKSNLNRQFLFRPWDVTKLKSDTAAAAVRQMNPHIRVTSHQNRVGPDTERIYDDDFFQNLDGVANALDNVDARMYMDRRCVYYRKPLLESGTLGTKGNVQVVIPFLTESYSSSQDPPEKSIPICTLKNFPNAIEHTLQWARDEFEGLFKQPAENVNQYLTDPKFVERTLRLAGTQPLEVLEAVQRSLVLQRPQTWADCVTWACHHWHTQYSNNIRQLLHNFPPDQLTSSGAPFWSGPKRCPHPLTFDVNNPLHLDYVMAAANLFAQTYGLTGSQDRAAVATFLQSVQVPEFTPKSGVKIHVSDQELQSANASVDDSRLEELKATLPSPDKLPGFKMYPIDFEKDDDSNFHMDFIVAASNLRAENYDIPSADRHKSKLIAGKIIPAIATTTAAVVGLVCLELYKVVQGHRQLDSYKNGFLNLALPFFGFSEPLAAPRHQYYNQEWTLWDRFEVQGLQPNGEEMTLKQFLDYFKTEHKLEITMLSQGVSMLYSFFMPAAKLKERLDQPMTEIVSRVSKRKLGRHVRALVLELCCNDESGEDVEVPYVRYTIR

[10] = biological target: T3, Ubiquitin-like modifier-activating enzyme 1 (Homo sapiens); test: Inhibition of UAE1 (unknown origin) assessed as decrease in UAE1-mediated Ubc10-ubiquitin conjugation levels up to 10 uM preincubated for 10 mins followed by ATP and Mg2+ addition measured after 60 mins by Western blot analysis
[11] = biological target: T2, NEDD8 activating enzyme (Homo sapiens); test: Inhibition of NAE in human Caco2 cells assessed as increase in p53 protein levels by measuring p53 degradation at 10 uM preincubated for 16 hrs followed by cycloheximide addition measured up to 60 mins by Western blot analysis relative to control; format: cell-based; set-up: scale not given: the % may be the effect or the level left
[12] = biological target: T2, NEDD8 activating enzyme (Homo sapiens); test: Inhibition of NAE in human Caco2 cells assessed as decrease in Bcl2 protein levels at 0.1 to 10 uM after 16 hrs by Western blot analysis; format: cell-based
[13] = biological target: T4, SUMO-activating enzyme (Homo sapiens) (UniProt Q9UBE0+Q9UBT2); test: Inhibition of SAE-mediated Ubc9-SUMO conjugation in human Caco2 cells up to 10 uM preincubated for 10 mins followed by ATP and Mg2+ addition measured after 60 mins by Western blot analysis; format: cell-based
[14] = biological target: T4, SUMO-activating enzyme (Homo sapiens); test: Inhibition of SAE (unknown origin) assessed as decrease in SAE-mediated Ubc9-SUMO conjugation levels up to 10 uM preincubated for 10 mins followed by ATP and Mg2+ addition measured after 60 mins by Western blot analysis; format: protein-complex assay
Caco-2 [15] = test: Upregulation of p53 protein levels in NAE knockdown human Caco2 cells at 10 uM after 16 hrs by Western blot analysis; format: functional, cell-based
Caco-2 [16] = test: Cytotoxicity against NAE-knockdown human Caco2 cells after 72 hrs by MTT assay; format: cell-based; details: Caco-2, 72 h
Caco-2 [17] = test: Induction of apoptosis in human Caco2 cells assessed as necrotic cells at 5 uM after 16 hrs by Annexin V-FITC/propidium iodide staining-based flow cytometric analysis (reference value: 0.12%); format: functional
Caco-2 [18] = test: Induction of apoptosis in human Caco2 cells assessed as early apoptotic cells at 5 uM after 16 hrs by Annexin V-FITC/propidium iodide staining-based flow cytometric analysis (reference value: 1.40%); format: functional
[19] = biological target: T2, NEDD8 activating enzyme (Homo sapiens); test: Inhibition of NAE in human Caco2 cells assessed as increase in p27 protein levels at 0.1 to 10 uM after 16 hrs by Western blot analysis; format: cell-based
[20] = biological target: T2, NEDD8 activating enzyme (Homo sapiens); test: Inhibition of NAE in human Caco2 cells assessed as decrease in cyclin D1 protein levels at 0.1 to 10 uM after 16 hrs by Western blot analysis; format: cell-based
[21] = biological target: T2, NEDD8 activating enzyme (Homo sapiens); test: Inhibition of NAE (unknown origin) assessed as decrease in NAE-mediated Ubc12-NEDD8 conjugation levels at 10 uM treated for 10 mins post ATP and Mg2+ addition measured after 60 mins by Western blot analysis; format: protein-complex assay
[22] = biological target: T2, NEDD8 activating enzyme (Homo sapiens); test: Inhibition of NAE in human Caco2 cells assessed as increase in phosphorylated NF-kappaB protein levels at 0.1 to 10 uM after 16 hrs by Western blot analysis; format: cell-based
Caco-2 [23] = test: Induction of apoptosis in human Caco2 cells assessed as late apoptotic cells at 5 uM after 16 hrs by Annexin V-FITC/propidium iodide staining-based flow cytometric analysis (reference value: 0.072%); format: functional
[24] = biological target: T2, NEDD8 activating enzyme (Homo sapiens); test: Inhibition of NAE in human Caco2 cells assessed as increase in beta-catenin protein levels after 16 hrs by Western blot analysis; format: cell-based
[25] = biological target: T2, NEDD8 activating enzyme (Homo sapiens); test: Inhibition of NAE in human Caco2 cells assessed as increase in c-myc protein levels after 16 hrs by Western blot analysis; format: cell-based
Caco-2 [26] = test: Induction of apoptosis in human Caco2 cells assessed as late apoptotic cells at 1 uM after 16 hrs by Annexin V-FITC/propidium iodide staining-based flow cytometric analysis (reference value: 0.072%); format: functional
[27] = biological target: T2, NEDD8 activating enzyme (Homo sapiens); test: Competitive inhibition of NAE (unknown origin) assessed as decrease in NAE-mediated Ubc12-NEDD8 conjugation levels at 10 uM preincubated for 10 mins followed by Mg2+ and various concentrations of ATP addition measured after 60 mins by Lineweaver-Burk plot analysis; format: protein-complex assay
Caco-2 [28] = test: Induction of apoptosis in human Caco2 cells assessed as early apoptotic cells at 1 uM after 16 hrs by Annexin V-FITC/propidium iodide staining-based flow cytometric analysis (reference value: 1.40%); format: functional
Caco-2 [29] = test: Induction of apoptosis in human Caco2 cells assessed as viable cells at 10 uM after 16 hrs by Annexin V-FITC/propidium iodide staining-based flow cytometric analysis (reference value: 98.4%); format: functional; details: Caco-2, 16 h, read-out: Activity
[30] = biological target: T2, NEDD8 activating enzyme (Homo sapiens); test: Inhibition of NAE in human Caco2 cells assessed as increase in p53 protein levels at 0.1 to 10 uM after 16 hrs by Western blot analysis; format: cell-based
[31] = biological target: T2, NEDD8 activating enzyme (Homo sapiens); test: Inhibition of NAE in human Caco2 cells harboring p53-luc plasmid assessed as increase in p53 transcriptional activity after 16 hrs by luciferase reporter gene assay; format: cell-based
Caco-2 [32] = test: Induction of apoptosis in human Caco2 cells assessed as viable cells at 5 uM after 16 hrs by Annexin V-FITC/propidium iodide staining-based flow cytometric analysis (reference value: 98.4%); format: functional; details: Caco-2, 16 h, read-out: Activity
Caco-2 [33] = test: Induction of apoptosis in human Caco2 cells assessed as viable cells at 1 uM after 16 hrs by Annexin V-FITC/propidium iodide staining-based flow cytometric analysis (reference value: 98.4%); format: functional; details: Caco-2, 16 h, read-out: Activity
[34] = biological target: T2, NEDD8 activating enzyme (Homo sapiens); test: Inhibition of NAE-mediated Ubcl2-NEDD8 conjugation in human Caco2 cells at 10 uM after 16 hrs by Western blot analysis; format: cell-based

O=C1c2c(O)ccc(O)c2C(=O)c2c(NCCNCCO)ccc(NCCNCCO)c21 [MITOXANTRONE]
pIC50 (Caco-2 [1]): 5.85
Activity (Caco-2 [2]): 22.1%
Activity (Caco-2 [3]): 0.91%
pEC50 (NEDD8 activating enzyme): 5.89
inhibition [4]: Dose-dependent effect
inhibition [5]: Dose-dependent effect
inhibition [6]: Active
Activity (Caco-2 [7]): 2.49%
Activity (Caco-2 [8]): 73.6%
inhibition [9]: inactive
inhibition [10]: inactive
Activity [11]: 15%
inhibition [12]: Active
inhibition [13]: inactive
inhibition [14]: inactive
Activity (Caco-2 [15]): Active
pIC50 (Caco-2 [16]): < 5.00
Activity (Caco-2 [17]): 6.07%
Activity (Caco-2 [18]): 27.8%
inhibition [19]: Active
inhibition [20]: Active
inhibition [21]: inactive
inhibition [22]: Active
Activity (Caco-2 [23]): 50.7%
inhibition [24]: Dose-dependent effect
inhibition [25]: Dose-dependent effect
Activity (Caco-2 [26]): 19.4%
inhibition [27]: Active
Activity (Caco-2 [28]): 42%
viability at 10 µM (Caco-2 [29]): 3.34%
inhibition [30]: Active
inhibition [31]: Dose-dependent effect
viability at 5 µM (Caco-2 [32]): 15.4%
viability at 1 µM (Caco-2 [33]): 36%
inhibition [34]: Active

COc1cc([C@@H]2c3cc4c(cc3[C@H](O)[C@H]3COC(=O)[C@H]23)OCO4)cc(OC)c1OC
inhibition [6]: Active

NS(=O)(=O)OC[C@@H]1C[C@@H](n2ccc3c(N[C@H]4CCc5ccccc54)ncnc32)C[C@@H]1O [PEVONEDISTAT]
pIC50 (Caco-2 [1]): 5.36
Activity (Caco-2 [2]): 14.3%
Activity (Caco-2 [3]): 32.8%
inhibition [4]: Dose-dependent effect
Activity (Caco-2 [8]): 6.27%
inhibition [27]: Active
viability at 10 µM (Caco-2 [29]): 46.6%
